# Laboratory results reported in patent US20180311220A1, “TREATMENT OF CANCERS WITH ACQUIRED RESISTANCE TO KIT INHIBITORS” (Bayer HealthCare LLC, priority 2007, published 2018).
# How the values were obtained:
# Type in all cases: cell-based, murine
# [1] = test system: Ba/F3 cells expressing human c-KIT with exon 11 deletion (residues 557-558); experiment: Ba/F3 cell proliferation assay (CellTiter-Glo), c-KIT exon 11 deletion; conditions: BaF3, n ≥ 3, 72 h incubation, read-out: Average IC50 for c-KIT-expressing Ba/F3 cellular proliferation, Exon 11 Deletion
# Procedure: (§1) The cDNA encoding full length human c-KIT with a deletion in exon 11 that removed amino acid residues 557-558 was ligated into the mammalian expression vector pClneo (Promega). […] All mutations were confirmed by DNA sequencing.
# (§2) Selective pressure was applied to the transfected cells by removing IL-3 from the culture medium. After IL-independent populations, further selective pressure was applied by also growing the cells in the presence of 1 mg/mL G418. […] The stable pools were further characterized by sequencing genomic DNA to confirm the presence of the transfected c-KIT cDNA.
# (§3) This assay utilizes cellular ATP as a marker for cell proliferation/viability. On day 1, Ba/F3 cells were plated in 96 well dishes (Costar 3603) at 10,000 cells per well in 10% FBS in RPMI medium with 1 mg/ml G418. […] Plates were then incubated in a 5% CO2 incubator at 37° C. for 3 days. […] The cells were then incubated on a shaker for 5 minutes at room temperature, and luminescence was measured on a Victor 5 (Perkin Elmer) spectrophotometer.
# (§4) Growth inhibition was measured by comparing luminescence signal from treated vs. untreated cells in assay plates, and the IC50 analysis of cell proliferation inhibition by compounds was analyzed using Analyze 5 in-house software. The IC50 values are mean values calculated from at least three experiments.
# [2] = test system: Ba/F3 cells expressing human c-KIT exon 11 deletion + V654A; experiment: Ba/F3 cell proliferation assay (CellTiter-Glo), c-KIT exon 11 deletion + V654A; conditions: BaF3; Exon 11 + V654A; n ≥ 3; 72 h incubation; read-out: Average IC50 for c-KIT-expressing Ba/F3 cellular proliferation, Eson 11 + V654A
# Procedure: as §1, §2, §3, §4
# [3] = test system: Ba/F3 cells expressing human c-KIT exon 11 deletion + T6701; experiment: Ba/F3 cell proliferation assay (CellTiter-Glo), c-KIT exon 11 deletion + T6701; conditions: BaF3; Exon 11 +T6701; n ≥ 3; 72 h incubation; read-out: Average IC50 for c-KIT-expressing Ba/F3 cellular proliferation, Exon 11 +T6701
# Procedure: as §1, §2, §3, §4
# [4] = test system: Ba/F3 cells expressing human c-KIT exon 11 deletion + D816G; experiment: Ba/F3 cell proliferation assay (CellTiter-Glo), c-KIT exon 11 deletion + D816G; conditions: BaF3; Exon 11 + D816G; n ≥ 3; 72 h incubation; read-out: Average IC50 for c-KIT-expressing Ba/F3 cellular proliferation, Exon 11 + D816G
# Procedure: as §1, §2, §3, §4
# [5] = test system: Ba/F3 cells expressing human c-KIT exon 11 deletion + N822K; experiment: Ba/F3 cell proliferation assay (CellTiter-Glo), c-KIT exon 11 deletion + N822K; conditions: BaF3; Exon 11 + N822K; n ≥ 3; 72 h incubation; read-out: Average IC50 for c-KIT-expressing Ba/F3 cellular proliferation, Exon 11 + N822K
# Procedure: as §1, §2, §3, §4
# [6] = test system: Ba/F3 cells expressing human c-KIT exon 11 deletion + Y823D; experiment: Ba/F3 cell proliferation assay (CellTiter-Glo), c-KIT exon 11 deletion + Y823D; conditions: BaF3; Exon 11 + Y823D; n ≥ 3; 72 h incubation; read-out: Average IC50 for c-KIT-expressing Ba/F3 cellular proliferation, Exon 11 + Y823D
# Procedure: as §1, §2, §3, §4
structure (smiles),measurement,setting,value
"CNC(=O)c1cc(Oc2ccc(NC(=O)Nc3ccc(Cl)c(C(F)(F)F)c3)c(F)c2)ccn1 [DAST, 4{4-[3-(4-chloro-3-trifluoromethylphenyl)-ureido]-3-fluorophenoxy}-pyridine-2-carboxylic acid methylamide]",IC50,[1],7 nM
same,IC50,[2],38 nM
same,IC50,[3],19 nM
same,IC50,[4],14 nM
same,IC50,[5],12 nM
same,IC50,[6],129 nM
